In US10174024B2, “5H-pyrido[3,2-B]indole compounds as anticancer agents” (BRISTOL-MYERS SQUIBB COMPANY, priority 2015, dated 2019):
Like-named read-outs stand apart in the source and are kept apart here.

Target: BRD4 (Homo sapiens, UniProt O60885)
Assay: Time Resolved Fluorescence Resonance Energy Transfer (TR-FRET) binding assay, FRET BRD4
Details: one of the FRET assays described (BRD4 bromodomain construct not specified)

Structure (SMILES)	IC50 (read-out: FRET BRD4 IC50) [nM]	IC50 (FRET BRD4 IC50 (nM)) [nM]
[2H]C([2H])([2H])c1nnn(C)c1-c1ccc2c3ncc(-c4c(C([2H])([2H])[2H])nnn4C)cc3n(C(c3ncccc3F)C3CCOCC3)c2c1 (stereo not shown) [Example 28, 2-({3,7-Bis[4-(^2H3)methyl-1-methyl-1H-1,2,3-triazol-5-yl]-5H-pyrido[3,2-b]indol-5-yl}(oxan-4-yl)methyl)-3-fluoropyridine]	< 5	–
[2H]C([2H])([2H])c1nnn(C)c1-c1cnc2c3ccc(N4CCC(S(C)(=O)=O)CC4)cc3n(C(c3ncccc3F)C3CCOCC3)c2c1 (stereo not shown) [Example 69, 3-Fluoro-2-{[7-(4-methanesulfonylpiperidin-1-yl)-3-[4-(^2H3)methyl-1-methyl-1H-1,2,3-triazol-5-yl]-5H-pyrido[3,2-b]indol-5-yl](oxan-4-yl)methyl}pyridine]	< 1	–
[2H]C([2H])([2H])c1nnn(C)c1-c1cnc2c3ccc(C4(O)CCN(C)CC4)c(F)c3n([C@H](c3ccccc3)C3CCOCC3)c2c1 [Example 54, 4-{6-Fluoro-3-[4-(^2H3)methyl-1-methyl-1H-1,2,3-triazol-5-yl]-5-[(S)-oxan-4-yl(phenyl)methyl]-5H-pyrido[3,2-b]indol-7-yl}-1-methylpiperidin-4-ol]	–	< 1
[2H]C([2H])([2H])c1nnn(C)c1-c1cnc2c3cc(N4CCN(S(C)(=O)=O)CC4)ccc3n([C@H](c3ccccc3F)C3CCOCC3)c2c1 [Example 42, 1-{5-[(S)-(2-Fluorophenyl)(oxan-4-yl)methyl]-3-[4-(^2Ha)methyl-1-methyl-1H-1,2,3-triazol-5-yl]-5H-pyrido[3,2-b]indol-8-yl}-4-methanesulfonylpiperazine]	< 5	–
